Target: PAR4 (Homo sapiens (Human), UniProt Q96RI0)
Test: FLIPR assay in PAR4-expressing HEK293 cells (PAR4 antagonist activity, calcium mobilization)
Type: cell-based
Conditions: FLIPR assay as described in Example A
Summary of the method: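 HEK293 cells stably expressing human PAR4 (also endogenous PAR1) in HBSS/10 mM HEPES, 0.67% DMSO final. Compound added and read for agonist activity, then 30 min room temperature before PAR4 agonist peptide; intracellular calcium mobilization monitored by FDSS/FLIPR.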

PAR4, sequence (Q96RI0 18-385): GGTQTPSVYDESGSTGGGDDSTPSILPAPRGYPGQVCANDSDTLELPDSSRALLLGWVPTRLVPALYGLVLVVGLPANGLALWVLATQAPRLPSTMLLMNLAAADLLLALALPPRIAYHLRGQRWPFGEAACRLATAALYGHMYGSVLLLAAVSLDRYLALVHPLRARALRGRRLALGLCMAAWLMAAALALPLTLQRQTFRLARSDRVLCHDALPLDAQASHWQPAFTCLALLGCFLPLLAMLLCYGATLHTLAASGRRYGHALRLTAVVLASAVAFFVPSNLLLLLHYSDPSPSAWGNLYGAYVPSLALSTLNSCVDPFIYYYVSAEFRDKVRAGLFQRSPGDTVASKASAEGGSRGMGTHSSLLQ

Structure (SMILES) | IC50
COc1nn2cc(-c3cc4c(OCc5cccc(OCc6ccccc6)c5)cc(O)cc4o3)nc2s1 [Example 410, 4-((3-(Benzyloxy)benzyl)oxy)-2-(2-methoxyimidazo[2,1-b][1,3,4]thiadiazol-6-yl)benzofuran-6-ol] | 7.79 nM
COc1nn2cc(-c3cc4cc([N+](=O)[O-])ccc4o3)nc2s1 [Example 100] | 71.4 nM
COc1nn2cc(-c3cc4c(OCc5cccc(OCc6ccccc6)c5)cc(F)cc4o3)nc2s1 [Example 427] | 1.91 nM
CCc1nn2cc(-c3cc4cccc(OCCCC#N)c4o3)nc2s1 [Example 66] | 2620 nM
COc1nn2cc(-c3cc4ccc(O)cc4o3)nc2s1 [Example 108] | 461 nM
CSc1nn2cc(-c3cc4ccc(C(=O)NCc5ccccc5)cc4o3)nc2s1 [Example 220, N-Benzyl-2-(2-(methylthio)imidazo[2,1-b][1,3,4]thiadiazol-6-yl)benzofuran-6-carboxamide] | 307 nM
COc1cc(OCc2ccccc2)c2cc(-c3cn4nc(SC)sc4n3)oc2c1 [Example 227-228] | 4.05 nM
COc1cc(OCc2ccc(C)c(OCc3ccccc3)c2)c2cc(-c3cn4nc(OC)sc4n3)oc2c1 [Example 352] | 3.61 nM
COc1cc2oc(-c3cn4nc([C@H](C)F)sc4n3)cc2cc1Cl [270-1] | 9.53 nM
COc1nn2cc(-c3cc4c(OCc5ccccc5)cc(OC)c(Br)c4o3)nc2s1 [Example 226, 6-(4-(Benzyloxy)-7-bromo-6-methoxybenzofuran-2-yl)-2-methoxyimidazo[2,1-b][1,3,4]thiadiazole] | 591 nM
COc1cc(OC)c2cc(-c3cn4nc(C(C)F)sc4n3)oc2c1 (stereo not shown) [Example 212, 6-(4,6-Dimethoxybenzofuran-2-yl)-2-(1-fluoroethyl)imidazo-[2,1-b][1,3,4]thiadiazole] | 50.9 nM
COc1nn2cc(-c3cc4ccc(C)c(C)c4o3)nc2s1 [Example 102] | 542 nM
COc1cc(OCc2cccc(OCc3ccc(OCc4ccccc4)cc3)c2)c2cc(-c3cn4nc(OC)sc4n3)oc2c1 [Example 366] | 164 nM
COc1cc(OC)c2cc(-c3cn4nc(SC)sc4n3)oc2c1 [Example 229] | 1.22 nM
CSc1nn2cc(-c3nc4cc(Cl)ccc4o3)nc2s1 [Example 125] | 206 nM
COc1cc2oc(-c3cn4nc(Br)sc4n3)cc2cc1Br [Example 275] | 23.1 nM
CSc1nn2cc(-c3nc4ccc(OCCN5CCCC5)cc4o3)nc2s1 [Example 114, 2-(2-(Methylthio)imidazo[2,1-b][1,3,4]thiadiazol-6-yl)-6-(2-(pyrrolidin-1-yl)ethoxy)benzo[d]oxazole] | 206 nM
COc1ccc(COc2ccc3nc(-c4cn5nc(SC)sc5n4)oc3c2)cc1 [Example 170] | 116 nM
CCc1cc(OCc2cccc(OCc3ccccc3)c2)c2cc(-c3cn4nc(OC)sc4n3)oc2c1 [Example 411, 6-(4-((3-(Benzyloxy)benzyl)oxy)-6-ethylbenzofuran-2-yl)-2-methoxyimidazo[2,1-b][1,3,4]thiadiazole] | 4.53 nM
COc1ccc2cc(-c3cn4nc(C(C)(F)F)sc4n3)oc2c1 [Example 271] | 19.4 nM
COc1cc(OCc2cccc(OCc3cc(Br)ccc3OC)c2)c2cc(-c3cn4nc(OC)sc4n3)oc2c1 [Example 367] | 4.09 nM
COc1nn2cc(-c3cc4cc(Br)c(OC)cc4o3)nc2s1 [Example 278] | 52.6 nM
CCOC(=O)COc1cccc2cc(-c3cn4nc(CC)sc4n3)oc12 [Example 62] | 587 nM
COc1ccc2oc(-c3cn4nc(SC)sc4n3)c(C)c2c1 [Example 24] | 696 nM
COc1cc2oc(-c3cn4nc(C(C)(F)F)sc4n3)cc2cc1Cl [Example 239] | 7.24 nM
CSc1nn2cc(-c3cc4c(OCc5cccc(OCc6ccccc6)c5)cc(OS(=O)(=O)C(F)(F)F)cc4o3)nc2s1 [Example 420] | 51.1 nM

Structure (SMILES) | IC50
CC(F)(F)c1nn2cc(-c3cc4ccccc4o3)nc2s1 [Example 207, 6-(Benzofuran-2-yl)-2-(1,1-difluoroethyl)imidazo[2,1-b][1,3,4]thiadiazole] | 127 nM
COc1cc(OC[C@H]2CCCN2C(=O)OC(C)(C)C)c2cc(-c3cn4nc(OC)sc4n3)oc2c1 [Example 340] | 2.21 nM
CSc1nn2cc(-c3cc4cc(Cl)c(C)cc4o3)nc2s1 [Example 269] | 74.5 nM
Cc1cc(C(F)(F)F)c2cc(-c3cn4nc(Br)sc4n3)oc2n1 [Example 306] | 1100 nM
COc1cc(OC(C)C)c2cc(-c3cn4nc(Br)sc4n3)oc2c1 [Example 299] | 78.8 nM
COc1nn2cc(-c3cc4cc(C)ccc4o3)nc2s1 [Example 95] | 6.89 nM
COc1cc(OCc2cccc(OCc3ccccc3OC(F)(F)F)c2)c2cc(-c3cn4nc(OC)sc4n3)oc2c1 [Example 322] | 9.97 nM
CSc1nn2cc(-c3nc4c(O)cccc4o3)nc2s1 [Example 147] | 78.3 nM
CC(F)(F)c1nn2cc(-c3cc4cccc(OC(F)(F)F)c4o3)nc2s1 [Example 240] | 671 nM
Cc1ccc2cc(-c3cn4nc(C(C)(F)F)sc4n3)oc2c1 [Example 233] | 15.7 nM
CCc1nn2cc(-c3nc4ccc(OCC(C)C)cc4o3)nc2s1 [Example 85] | 392 nM
COc1ccc2c(C)c(-c3cn4nc(SC)sc4n3)oc2c1OC [Example 25] | 2.81 nM
COc1nn2cc(-c3nc4c(OC(F)(F)F)cccc4s3)nc2s1 [Example 195] | 2420 nM
Cc1ccc2oc(-c3cn4nc(C)sc4n3)nc2c1 [Example 112, 5-Methyl-2-(2-methylimidazo[2,1-b][1,3,4]thiadiazol-6-yl)benzo[d]oxazole] | 382 nM
CCc1nn2cc(-c3nc4ccc(OCC5CCCCC5)cc4o3)nc2s1 [Example 76] | 3400 nM
CC(F)(F)c1nn2cc(-c3nc4c([N+](=O)[O-])cccc4o3)nc2s1 [Example 123, 2-(2-(1,1-Difluoroethyl)imidazo[2,1-b][1,3,4]thiadiazol-6-yl)-4-nitrobenzo[d]oxazole] | 1120 nM
CCc1nn2cc(-c3nc4ccc(OC5CCC5)cc4o3)nc2s1 [Example 75] | 294 nM
COc1ccc2oc(-c3cn4nc(SC)sc4n3)nc2c1 [Example 141] | 41 nM
CCc1nn2cc(-c3nc4ccc(OC5CCCCC5)cc4o3)nc2s1 [Example 80] | 695 nM
Fc1cccc2oc(-c3cn4nc(Br)sc4n3)cc12 [Example 276] | 120 nM
CSc1nn2cc(-c3nc4c(OC[C@@H]5CCCN5C(=O)[C@H](NC(=O)c5cccs5)c5ccccc5)cccc4o3)nc2s1 [Example 338, N—((R)-2-((S)-2-(((2-(2-(Methylthio)imidazo[2,1-b][1,3,4]thiadiazol-6-yl)benzo[d]oxazol-4-yl)oxy)methyl)pyrrolidin-1-yl)-2-oxo-1-phenylethyl)thiophene-2-carboxamide] | 1160 nM
CCc1nn2cc(-c3cc4cccc(O)c4o3)nc2s1 [Example 59] | 288 nM
CSc1nn2cc(-c3nc4ccc(C)cc4s3)nc2s1 [Example 190] | 204 nM
COCOc1cccc2oc(-c3cn4nc(SC)sc4n3)nc12 [Example 163] | 39.5 nM
CSc1nn2cc(-c3nc4ccc(OCc5ccccc5)cc4o3)nc2s1 [Example 115, 6-(Benzyloxy)-2-(2-(methylthio)imidazo[2,1-b][1,3,4]thiadiazol-6-yl)benzo[d]oxazole] | 74.9 nM
COc1nn2cc(-c3cc4ccc(C)cc4o3)nc2s1 [Example 90] | 4.7 nM

From patent US9862730B2, “Imidazothiadiazole derivatives as protease activated receptor 4 (PAR4) inhibitors for treating platelet aggregation” (BRISTOL-MYERS SQUIBB COMPANY, priority 2012, dated 2018)
